In patent publication US11337420B2, “Cryopreservation of juvenile stages of barnacles” (Planktonic AS, priority 2016, dated 2022):
Where two headings read alike, the source gives them in different places.

Columns and labels:
[1] = tested on: Barnacle nauplii stage I and II from Semibalanus balanoides; experiment: Cryopreservation, thawing and revitalization of nauplii, viability check (different cryoprotectants, volume ratios, equilibrium periods); assay type: in vivo
Method: (§1) Barnacle nauplii (Semibalanus balanoides or Balanus crenatus) were drained and concentrated (10% dry weight) and mixed 1:1 with a cryoprotectant (on ice). The mixture was filled, sealed and equilibrated in a pouch (600 gram consisting of 300 ml cryoprotectant and 300 ml barnacles) for 30 minutes at 5 ° C. before transferring to a controlled freezer. The pouch was put in an aluminum rack, and temperature loggers were put inside the pouch and in the freezer to measure air temperature. Alternatively smaller amount of about 60 g or vials were used in the tests.
(§2) After freezing from 5 to −42 ° C., with a duration of >12 hours using the disclosed method, the pouches were soaked in liquid nitrogen until −196 ° C. were homogenously achieved inside the pouches. The pouches were transferred to cryocontainers (with liquid nitrogen) of 175 liters, and stored for more than 48 hours. To check viability, the pouches were removed from the cryocontainer, crushed to get out the content and thawed in cold seawater (less than 5 ° C.). After 15 minutes, the thawed nauplii were washed on a 100 μm filter to remove the cryoprotectant. Revitalization was performed for >8 hours in an aerated tank with 30 PSU seawater (start temperature 2.5 ° C.).
Barnacle nauplii stage I and II from Semibalanus balanoides were treated with a 6 molar solution of dimethyl sulfoxide (DMSO) as cryoprotectant and 1:1 mixing between cryoprotectant and organisms. Equilibrium was performed for 30 minutes at 3 to 5° C.
Samples of these organisms were cryopreserved in a volume ratio of A) 30% cryoprotectant to 70% organisms (volume/volume) and B) 40% cryoprotectant to 60% organisms (volume/volume). The control was C) 50% cryoprotectant to 50% organisms (volume/volume). All tests were carried out in triplicate.
(1:1 volume ratio with organisms). Thereafter the organisms were cryopreserved by the disclosed method, stored in liquid nitrogen for 48 hours, thawed and revitalized. The barnacle nauplii were analyzed for their vitality using a binocular microscope.

[2] = for content of ethylene glycol in drained barnacle nauplii: revitalization in 30 liters of seawater
Excerpt: Immediately after thawing, the nauplii was drained for water and frozen again.
A small piece of frozen material was taken on a filter, and rinsed until it was thawed, and thereafter frozen and analyzed. […] When revitalized, the barnacle nauplii were drained again for seawater, and added 30 liters of seawater.

[3] = tested on: Barnacle nauplii stage I and II from Semibalanus balanoides or Balanus crenatus; conditions: 7.2 molar solution, 1:1 mixing between cryoprotectant and organisms
Method: as §1, §2

[4] = tested on: Barnacle nauplii stage I and II of Semibalanus balanoides
Method: Samples were taken out after 0, 1, 2, 4, 8, 12, and 24 hours and the cryoprotectant was washed out to check viability of the nauplii. Levels of viability were identified as 0, 1, 2, 3, 4 and 5. “0” represents no activity (dead nauplii), 1-3 are twitching of appendages less than pre-cryopreserved nauplii, but 3 are close to natural swimming. 4 are swimming as pre-cryopreserved nauplii, and 5 are over-stimulated nauplii.

[5] = tested on: nauplii of Balanus amphitrite; conditions: 3 to 4 M, equilibration time up to 2 h; cited from earlier work
[6] = tested on: aquatic organisms; conditions: aquatic organisms in general; cited from earlier work
[7] = tested on: nauplii; conditions: salt in the cryoprotectant solution compared to no salt addition
Excerpt: The final salt concentration of NaCl is thereby preferably between 2.0 to 4.5%, more preferably between 3.0 to 3.8%, most preferred between 3.2 and 3.8%.

[8] = 600 gram sample in 15 liter seawater, after 15 minutes

## C[S+](C)[O-] [DMSO, dimethyl sulfoxide]
[1]; 6 molar solution, 1:1 mixing, equilibrium 30 minutes at 3 to 5° C.
  viability after thawing: comparable to barnacle nauplii exposed to ethylene glycol

## CC(O)CO (centres unmarked) [propylene glycol]
[1]; 40% by volume mixed with 60% by volume seawater, volume ratio 1:1
  percentage of viable nauplii after thawing: minimal compared to ethylene glycol

## OCCO [ethylene glycol]
[2]; 7.2 molar solution added to drained material
  equilibration of cryoprotectant with the organisms: < 15%
[2]; [8]
  content as share of the added ethylene glycol: < 2%
  ethylene glycol concentration in nauplii: about 0.1 M
[2]; after one hour
  content of ethylene glycol in drained barnacle nauplii: < 25 ppm
[2]; after two hours, detection level
  content of ethylene glycol in drained barnacle nauplii: < 10 ppm
[2]; second step: drained, 15 liter of seawater added for washing
  ethylene glycol concentration inside the organisms: < 300 ppm
[2]; time zero sample, rinsed until thawed, 7.2 M, volume ratio 1:1
  ethylene glycol content in nauplii: 7400-11000 ppm
[3]
  nauplii with natural swimming activity (level 4) after thawing: > 50%
  swimming activity level of the remaining nauplii after thawing: 1-3
[4]; 7.2 molar ethylene glycol stock solution, on ice, even after 24 hour of exposure
  individuals showing relatively good swimming behavior: 80-90%
[4]; 7.2 molar ethylene glycol stock solution, on ice, even after 24 hour of exposure, cryoprotectant washed out
  level of viability of recovered nauplii: 2-3
[4]; equilibrium period of 24 hours with 7.2 M (stock solution) ice cold
  harm to nauplii in toxicity test: does not considerably harm barnacle nauplii
[5]
  damage to nauplii: did not cause damage
[6]
  level regarded as non-toxic: ≤ 100 ppm
[1]; 30%, 40% or 50% cryoprotectant to 70%, 60% or 50% organisms (volume/volume), triplicate
  viability, difference between volume ratios: no significant between the treatments in terms of viability
[1]; incubated 0, 15, 30, 60 minutes in 7.2 M at 5 ° C., 1:1 volume ratio
  vitality, difference between equilibrium periods: No significant differences in vitality
[1]; incubated 90 minutes in 7.2 M at 5 ° C., 1:1 volume ratio
  vitality after equilibrium period: less vital organisms than the other treatments

## [Cl-].[Na+] [NaCl]
[7]
  revitalization of nauplii: improve the revitalization of nauplii compared to no salt addition
